Assay results: patent publication US20110072541A1, “MARKER FREE TRANSGENIC PLANTS ENGINEERING THE CHLOROPLAST GENOME WITHOUT THE USE OF ANTIBIOTIC SELECTION” (priority 2000, published 2011)
“Also recorded” adds a separate entry of the source. Where a name gives a salt, the structure may show the parent alone.

Tests used:
[1] = system: untransformed N. tabacum Petit Havana leaf discs; assay: Toxicity of the selection agent to untransformed control leaf discs; format: cell-based, Nicotiana tabacum; details: for effect on leaf discs under selection: RMOP selection medium
Description: A. N. tabacum Petit Havana control in RMOP medium containing spectinomycin after 45 days. B. Bombarded leaf discs selected on spectinomycin in RMOP medium after 45 days. C. Spectinomycin resistant clones cultured again ([…]) to obtain homoplasmy. D. Petit Havana control in RMOP medium containing betaine aldehyde after 12 days of culture. E. Bombarded leaf discs selected on betaine aldehyde in RMOP medium after 12 days of culture; arrow indicates unbombarded leaf disc as control. Note that 23 shoots are formed on a disc selected on betain aldehyde against 1-2 shoots per disc on spectinomycin. F. Betaine aldehyde resistant clones cultured again (second round) to obtain homoplasmy. G. Selection on 10 mM betaine aldehyde of untransformed (1) and transgenic (2-4) leaf discs.
(§1) Leaves were placed abaxial side up on Whatman No. 1 filter papers laying on the RMOP medium (Daniell 1993) in standard petri plates (100×15 mm) for bombardment. Microprojectiles were coated with plasmid DNA (pLD-BADH) and bombardments were carried out with the biolistic device PDS 1000/He (Bio-Rad) as described by Daniell (1997). Following bombardment, petri plates were sealed with parafilm and incubated at 24° C. under 16 hour photoperiod. Two days after bombardment, leaves were chopped into small pieces of ˜5 mm^2 in size and placed on the selection medium (RMOP containing 500 μg/ml of spectinomycin dihydrochloride or 5-10 mM betaine aldehyde) with abaxial side touching the medium in deep (100×25 mm) petri plates. The regenerated resistant shoots were chopped into small pieces (˜2 mm^2) and subcloned into fresh deep petri plates containing the same selection medium. Resistant shoots from the second culture cycle were transferred to the rooting medium (MSO medium supplemented with IBA, 1 mg/liter containing appropriate selectable marker). Rooted plants were transferred to soil and grown at 26° C. under 16 hour photoperiod.
(§2) The entire process of regeneration, starting from bombardment until transfer to soil, takes about 3-6 months for spectinomycin selection and 2-3 months for betaine aldehyde selection. FIG. 3 and Table 1 show differences between the two selection processes. […] Leaf disks in FIG. 3 under betaine aldehyde selection appear partially green because they were photographed 12 days after the initiation of the selection process whereas the disc photographed on spectinomycin were 45 days after initiation of the selection process. In spite of the short period of selection one leaf disk was almost bleached (FIG. 3D) and all of them were killed after 30 days. Under 10 mM betaine aldehyde selection, control untransformed samples were killed (turned black, 3G-1) whereas transgenic leaves produced new shoots (FIG. 3G, 2-4).

resistant tobacco clones [2] = assay: PCR screening of resistant clones for chloroplast integration; parameters: species or system Nicotiana tabacum
Description: Integration of a foreign gene into the chloroplast genome was confirmed by PCR screening of chloroplast transformants (FIG. 4). Primers were designed to eliminate mutants, nuclear integration and to determine whether the integration of foreign genes had occurred in the chloroplast genome at the directed site by homologous recombination. The strategy to distinguish between nuclear and chloroplast transgenic plants was to land one primer (3P) on the native chloroplast genome adjacent to the point of integration and the second primer (3M) on the aadA gene (FIG. 1). This primer set generated 1.6 kb PCR product in chloroplast transformants (FIG. 4). Because this product cannot be obtained in nuclear transgenic plants, the possibility of nuclear integration can be eliminated. […] The rest of the resistant shoots may be either escapes or nuclear transformants. […] In contrast, nearly 60% of the spectinomycin resistant clones were mutants. Other labs have recently reported as high as 90% mutants among spectinomycin resistant clones (Eibl et al. 1999; Sidorov et al. 1999).

resistant tobacco clones [3] = details: Eibl et al. 1999; Sidorov et al. 1999; cited from earlier work
tobacco seeds = assay: Seed germination on medium containing the selection agent; format: in vivo, Nicotiana tabacum
Description: Lack of pleiotropic effects. […] They grew normally, flowered and set seeds. […] […] This may be due to the presence of an active endogenous BADH or similar enzymatic activity in non-green plastids during germination.

[4] = system: Tobacco (Nicotiana tabacum var. Petit Havana) leaf discs; assay: Selection of bombarded tobacco leaf discs on RMOP selection medium (chloroplast transformation with pLD-BADH); format: cell-based; details: for time until resistant clones formed green shoots: after initiation of selection; for leaf discs responded / resistant shoots per responding leaf disk: bombarded leaf discs under selection; for average resistant shoots per plate: spectinomycin after 45 days; for resistant shoots regenerated overall: ten bombardments (spectinomycin), six bombardments (betaine aldehyde)
Description: Expression cassettes of the chloroplast integration vector contain the chimeric aadA gene and the BADH gene driven by the constitutive 16S rRNA promoter and regulated by the 3′ untranslated region of the plastid psbA gene. The chimeric aadA gene encoding aminoglycoside 3′ adenyltransferase confers spectinomycin resistance in chloroplasts enabling selection of the transformants on spectinomycin dihydrochloride. On the other hand, BADH converts the toxic betaine aldehyde in cells to glycine betaine. When present, this pathway is compartmentalized within chloroplasts (Nuccio, et al. 1999). To facilitate translation of the dicistronic mRNA, independent Shine-Dalgarno (SD) sequences were provided to the aadA and BADH genes upstream of the initiation codons. In order to accurately compare transformation efficiency of both selectable markers under identical bombardment and transformation conditions, aadA and BADH genes were inserted into the same vector, at the same site. Bombarded leaves were treated in identical manner except the addition of selection reagent.
Tobacco (Nicotiana tabacum var. Petit Havana) was grown aseptically by germination of seeds in MSO medium. This medium contains MS salts (4.3 g/liter), B5 vitamin mixture (myoinositol, 100 mg/liter; thiamine-HCl, 10 mg/liter; nicotinic acid, 1 mg/liter; pyridoxine-HCl, 1 mg/liter), sucrose (30 g/liter) and phytagar (6 g/liter) at pH 5.8. Fully expanded, dark green leaves of about two month old plants were used for bombardment.
as §1, §2
When the leaf discs were selected for spectinomycin resistance, only 15% of the discs responded and an average of one resistant shoot per plate was observed after 45 days. From each callus, all resistant shoots are considered to represent an individual clone. Under betaine aldehyde selection 80% of the discs responded and an average of 25 resistant shoots per plate was observed. […]

Row | Compound | effect on leaf discs under selection [1] | mutants among resistant clones (resistant tobacco clones [2]; applicant's clones) | mutants among resistant clones, other labs (resistant tobacco clones [3]) | germination of seeds from chloroplast transgenic plants (tobacco seeds; MS medium, 500 μg/ml spectinomycin) | entire process of regeneration, bombardment until transfer to soil [4] | time until resistant clones formed green shoots [4] | leaf discs responded [4] | average resistant shoots per plate [4] | resistant shoots regenerated overall [4] | effect on untransformed leaf discs ([1]; 10 mM betaine aldehyde) | time after which all control leaf disks were killed ([1]; Petit Havana control in RMOP with betaine aldehyde) | resistant clones with foreign genes integrated into the chloroplast genome (PCR) (resistant tobacco clones [2]; after the first culture cycle) | germination of untransformed seeds (tobacco seeds; betaine aldehyde 10-15 mM) | efficiency of transformation relative to spectinomycin selection ([4]; betaine aldehyde vs spectinomycin selection) | resistant shoots per responding leaf disk [4] | resistant shoots per responding leaf disk ([4]; listed as betain aldehyde)
1 | CN[C@@H]1[C@H](O)[C@H](NC)[C@H]2O[C@@]3(O)C(=O)C[C@@H](C)O[C@H]3O[C@@H]2[C@H]1O [Spectinomycin, spectinomycin dihydrochloride] | leaf discs continued to grow but pigments were bleached | ~60% | ≤ 90% | germinated and grew normally | 3-6 months | about 45 days | 15% | one | 10 |  |  |  |  |  |  | 
2 | C[N+](C)(C)CC=O [betaine aldehyde] | growth of the leaf discs was completely inhibited and photosynthetic pigments were degraded |  |  |  | 2-3 months | ≤ 12 days | 80% | 25 | more than 150 | death of untransformed leaf disc; also recorded: killed | 30 days | 11 out of 15 | germinated | 25 fold | ≤ 23 | 23
